From US11465965B2, “Double-headed protease inhibitor” (UBE INDUSTRIES, LTD., priority 2017, dated 2022) come the findings set out here.

Molecules are shown by their SMILES. Where a name gives a salt, the structure may show the parent alone.

Broadly, the inhibition is the share of the control response that was lost under treatment. The AUC is the area under the concentration-time curve, a measure of exposure.

Data set [1] concerns the target T1, Human recombinant trypsin (Homo sapiens, UniProt P07477).
T1 construct: purchased Wako Pure Chemical Industries, Ltd. 206-17171
The data set is described as follows: Human trypsin inhibition test. Particulars: 20 minutes after reaction start, read-out: Inhibition rate (trypsin); for inhibition at 0.01 µM: compound concentration 10 nM; for inhibition at 0.1 µM: compound concentration 100 nM; for inhibition at 0.001 µM: compound concentration 1 nM. In kind it is biochemical. An outline of the steps: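 Trypsin diluted to 10 ng/mL in 0.1 M Tris-HCl pH8.0, 0.15 M NaCl, 10 mM CaCl2, 0.05% Brij35; substrate solution 40 μM Boc-Phe-Ser-Arg-MCA, compounds in 1% DMSO buffer. Fluorescence (ex 355/em 460 nm) read 20 min after enzyme addition; % inhibition versus no-compound and no-enzyme controls.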

Data set [2] relates to HFD-fed mouse. The data set is described as follows: Fecal protein concentration-increasing test by single administration using HFD-fed mouse. The following applies: 24 h, HFD-fed mice, vs vehicle group, read-out: Ratio for an increase of protein concentration in feces. In kind it is in vivo. The source says: (Test Example 3): Fecal Protein Concentration-Increasing Test by Single Administration Using HFD-Fed Mouse
High fat diet-fed (HFD-fed) mice (D-12492 diet, male, ICR, 6 week old) were orally administered with a 0.5 W/V % methylcellulose suspension comprising each test compound (Compound administration group, 4 or 5 mice/group) or a 0.5 W/V % methylcellulose suspension (Compound non-administration group (Vehicle group), 5, 6, or 7 mice/group), and whole feces of the day were collected. Dried feces were dissolved into a 0.5N aqueous sodium hydroxide solution, followed by centrifugation at 3500 rpm. Then each protein concentration in the resulting supernatant was determined (Lowry method), and the ratio for an increase of protein concentration in feces was calculated by the following equation using the protein concentration in feces contained in 1 g of feces (mg/g feces). Ratio for an increase of protein concentration in feces−(average protein concentration in feces of Compound administration group)[…](average protein concentration in feces of Compound non-administration group)

Data set [3] concerns DIO mouse. Put plainly: Anti-obesity effect test using DIO mouse. The format is in vivo. Particulars: 336 h, DIO mice, vs vehicle group, read-out: Weight loss rate. Put shortly: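 Male C57BL-DIO mice on D-12492 diet, 26 to 28-week old, 5 or 6 per group; compound dosed orally once daily for 2 weeks as 0.5 W/V % methylcellulose suspension, vehicle group on suspension alone. Weight loss rate (%) = (1 − mean final-day weight of treated group / mean final-day weight of vehicle group) × 100.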

Data set [4] deals with T2, Human recombinant enteropeptidase (Homo sapiens, UniProt P98073).
T2 construct: purchased BIO Vision Inc. 7529-50
The data set is described as follows: Human enteropeptidase inhibition test. In kind it is biochemical. Particulars: 20 minutes after reaction start, read-out: Inhibition rate (enteropeptidase); for inhibition at 0.001 µM: compound concentration 1 nM; for inhibition at 0.01 µM: compound concentration 10 nM; for inhibition at 0.1 µM: compound concentration 100 nM. Put shortly: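 Recombinant human enteropeptidase in 50 mM tricine pH 8.0, 0.01% Tween 20, 10 mM CaCl2 cleaving 1.5 μM 5FAM/CPQ2-quenched peptide substrate (stock solution concentration). Fluorescence (ex 485/em 535 nm) read 20 min after enzyme addition; % inhibition versus no-compound and no-enzyme controls.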

Data set [5] in a line: Rat pharmacokinetic (PK) test (plasma concentration after oral administration). Particulars: male, SD, 10 mg/kg.
Method: Each test compound was suspended in a 0.5 W/V % methylcellulose 400 solution to prepare a suspension, and the resulting suspension was orally administered to a male SD rat of 7 to 8-week old (weight: 180 to 250 g). After 0.25, 0.5, 1, 2, 4, 8, and 24 hour(s) of the administration of each test compound, blood (EDTA-added blood) was collected from jugular vein under isoflurane inhalation anesthesia. […] To the resulting blood plasma was added acetonitrile, a mixed solvent of acetonitrile and water (1:1 (V/V)), or a mixed solvent of acetonitrile and 0.1 M hydrochloric acid (1:1 (V/V)), then the resulting mixture was mixed at 750 rpm for 3 minutes in a shaker, and subjected to centrifugal separation at 3700 rpm for 2 minutes in a centrifuge to remove proteins. The resulting sample was subjected to LC (liquid chromatography)/MS (mass spectrometry) measurement under the following measurement conditions.
Each compound concentration in blood plasma at each time of blood collection was calculated according to the internal standard method, and, area under the plasma concentration vs. time curve (AUCall (Area Under Curve)) was calculated according to the trapezoidal method.
The LC and MS systems used in the present test are as follows.
LC: LC20 or LC30 HPLC system manufactured by Shimadzu Corporation
Column: Phenomenex Kinetex C18 (50×2.1 mm, 2.6 μm)
Column temperature: 40° C.
Mobile phase A: aqueous solution with 0.1% formic acid, Mobile phase B: 50% acetonitrile/methanol solution with 0.1% formic acid

T2 sequence (P98073 whole entry): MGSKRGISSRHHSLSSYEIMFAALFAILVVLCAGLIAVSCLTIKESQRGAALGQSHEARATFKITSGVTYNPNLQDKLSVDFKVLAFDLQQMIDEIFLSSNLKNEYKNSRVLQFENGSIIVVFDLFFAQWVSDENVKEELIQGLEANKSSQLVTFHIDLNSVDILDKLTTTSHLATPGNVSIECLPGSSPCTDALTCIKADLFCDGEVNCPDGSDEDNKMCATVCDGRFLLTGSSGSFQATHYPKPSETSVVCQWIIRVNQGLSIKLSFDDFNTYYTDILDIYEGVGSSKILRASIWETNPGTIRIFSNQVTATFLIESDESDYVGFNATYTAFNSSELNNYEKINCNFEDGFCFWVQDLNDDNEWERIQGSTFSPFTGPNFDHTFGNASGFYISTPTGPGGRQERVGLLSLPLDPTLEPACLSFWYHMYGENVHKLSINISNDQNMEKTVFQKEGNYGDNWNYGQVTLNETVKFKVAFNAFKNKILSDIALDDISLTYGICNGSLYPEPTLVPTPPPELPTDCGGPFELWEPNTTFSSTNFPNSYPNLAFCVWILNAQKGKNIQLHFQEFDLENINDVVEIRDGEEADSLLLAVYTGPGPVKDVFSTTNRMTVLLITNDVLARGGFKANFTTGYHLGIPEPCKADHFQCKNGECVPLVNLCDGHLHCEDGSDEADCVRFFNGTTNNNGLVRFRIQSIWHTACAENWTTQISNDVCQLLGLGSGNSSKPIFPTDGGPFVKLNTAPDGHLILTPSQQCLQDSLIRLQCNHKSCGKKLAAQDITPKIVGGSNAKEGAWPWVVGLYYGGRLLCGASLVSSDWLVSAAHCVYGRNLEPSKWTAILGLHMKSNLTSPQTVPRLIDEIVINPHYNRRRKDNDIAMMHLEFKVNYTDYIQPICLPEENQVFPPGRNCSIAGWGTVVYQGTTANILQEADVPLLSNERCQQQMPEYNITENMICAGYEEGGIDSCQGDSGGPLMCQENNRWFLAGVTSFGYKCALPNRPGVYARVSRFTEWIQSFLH

With `N=C(N)Nc1ccc2c(c1)CCCOc1c(cccc1C(=O)N(CCOCCOCCOCCN(C(=O)c1cccc3c1OCCCc1cc(NC(=N)N)ccc1C(=O)O3)[C@@H](CC(=O)O)C(=O)O)[C@@H](CC(=O)O)C(=O)O)OC2=O` [27-(b), (2S,165)-3,15-bis(10-guanidino-13-oxo-6,7,8,13-tetrahydrodibenzo[b,f][1,4]dioxecin-4-carbonyl)-6,9,12-trioxa-3,15-diazaheptadecane-1,2,16,17-tetracarboxylic acid], in data set [1], the inhibition at 0.01 µM is at least 50% and the inhibition at 0.1 µM is at least 50%. Moreover, in data set [2] (single oral dose 50 mg/kg), the response vs control in vivo at 50 mg/kg is at least 130%. The inhibition in vivo at 50 mg/kg in data set [3] (oral 50 mg/kg once daily for 2 weeks) was at least 4%. In data set [4], the inhibition at 0.001 µM is at least 50%, the inhibition at 0.01 µM was at least 50% and the inhibition at 0.1 µM was at least 50%.

`N=C(N)Nc1ccc(C(=O)Oc2ccc(CNS(=O)(=O)N(CCOCCOCCOCCOCCN([C@@H](CC(=O)O)C(=O)O)S(=O)(=O)NCc3ccc(OC(=O)c4ccc(NC(=N)N)cc4)cc3)[C@@H](CC(=O)O)C(=O)O)cc2)cc1` [4-(b), (2S,19S)-3,18-bis(N-(4-((4-guanidinobenzoyl)oxy)benzyl)sulfamoyl)-6,9,12,15-tetraoxa-3,18-diazaicosane-1,2,19,20-tetracarboxylic acid trifluoroacetate]: in data set [1], the inhibition at 0.01 µM was at least 50% and the inhibition at 0.1 µM was at least 50%. In data set [2] (single oral dose 100 mg/kg), the response vs control in vivo at 100 mg/kg was at least 130%. Besides, in data set [5], the area under the curve (AUC) was at most 100 ng·h/mL. In addition, the inhibition in vivo at 86 mg/kg in data set [3] (oral 86 mg/kg once daily for 2 weeks) is at least 4%. Also, in data set [4], the inhibition at 0.01 µM is at least 50% and the inhibition at 0.1 µM was at least 50%.

Regarding `N=C(N)Nc1ccc2c(c1)CCCOc1c(cccc1C(=O)N(CCOCCOCCN(C(=O)c1cccc3c1OCCCc1cc(NC(=N)N)ccc1C(=O)O3)[C@@H](CC(=O)O)C(=O)O)[C@@H](CC(=O)O)C(=O)O)OC2=O` [20-(b), (2S,13S)-3,12-bis(10-guanidino-13-oxo-6,7,8,13-tetrahydrodibenzo[b,f][1,4]dioxecin-4-carbonyl)-6,9-dioxa-3,12-diazatetradecane-1,2,13,14-tetracarboxylic acid trifluoroacetate], in data set [1], the inhibition at 0.001 µM was at least 50%, the inhibition at 0.01 µM was at least 50% and the inhibition at 0.1 µM was at least 50%. Besides, in data set [2] (single oral dose 30 mg/kg), the response vs control in vivo at 30 mg/kg was at least 130%. For the same compound, the inhibition in vivo at 25 mg/kg in data set [3] (oral 25 mg/kg once daily for 2 weeks) is at least 4%. Besides, in data set [4], the inhibition at 0.001 µM is at least 50%, the inhibition at 0.01 µM is at least 50% and the inhibition at 0.1 µM is at least 50%.

Regarding `N=C(N)Nc1ccc(C(=O)Oc2ccc(COC(=O)N(CC(=O)N[C@@H](CC(=O)O)C(=O)NCCOCCOCCOCCOCCNC(=O)[C@H](CC(=O)O)NC(=O)CN(Cc3cccc(C(=O)O)c3)C(=O)OCc3ccc(OC(=O)c4ccc(NC(=N)N)cc4)cc3)Cc3cccc(C(=O)O)c3)cc2)cc1` [14-(b), (3S,22S)-3,22-bis(2-((3-carboxybenzyl) (((4-((4-guanidinobenzoyl)oxy)benzyl)oxy)carbonyl)amino)acetamido)-4,21-dioxo-8,1,14,17-tetraoxa-5,20-diazatetracosane-1,24-dioic acid trifluoroacetate], in data set [1], the inhibition at 0.001 µM was at least 50%, the inhibition at 0.01 µM is at least 50% and the inhibition at 0.1 µM was at least 50%. For the same compound, the response vs control in vivo at 89 mg/kg in data set [2] (single oral dose 89 mg/kg) was at least 130%. Moreover, in data set [3] (oral 90 mg/kg once daily for 2 weeks), the inhibition in vivo at 90 mg/kg was at least 4%. In addition, in data set [4], the inhibition at 0.01 µM is at least 50% and the inhibition at 0.1 µM is at least 50%.
